Earlier results in publication PMC12019481 (Nature Communications, 2025).

Legend:
[1] = tested on: GAT3
[2] = target: GAT1 (Homo sapiens, UniProt P30531)
Sequence of GAT1 (P30531 whole entry): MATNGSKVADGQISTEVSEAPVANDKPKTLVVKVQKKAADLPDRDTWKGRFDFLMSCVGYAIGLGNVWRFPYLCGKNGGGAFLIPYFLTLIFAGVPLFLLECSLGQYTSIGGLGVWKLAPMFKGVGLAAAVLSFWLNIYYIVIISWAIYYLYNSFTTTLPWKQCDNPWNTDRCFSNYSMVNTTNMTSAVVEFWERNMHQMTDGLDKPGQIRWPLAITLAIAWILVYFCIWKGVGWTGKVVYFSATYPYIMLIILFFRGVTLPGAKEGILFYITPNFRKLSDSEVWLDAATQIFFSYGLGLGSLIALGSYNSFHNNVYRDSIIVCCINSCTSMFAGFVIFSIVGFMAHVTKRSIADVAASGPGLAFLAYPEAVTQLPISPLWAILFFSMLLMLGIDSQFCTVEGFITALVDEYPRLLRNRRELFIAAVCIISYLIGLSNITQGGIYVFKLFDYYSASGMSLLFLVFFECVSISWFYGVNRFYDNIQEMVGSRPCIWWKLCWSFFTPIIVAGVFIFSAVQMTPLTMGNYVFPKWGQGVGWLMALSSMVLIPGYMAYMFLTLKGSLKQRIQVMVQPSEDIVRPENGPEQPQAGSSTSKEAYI

selectivity for GAT1 [2] | Compound | selectivity for GAT3 [1]
 | 5-(2-Thienyl)Isatin | ~ 167 fold
10,000–20,000 fold | Cc1ccsc1C(=CCCN1CCC[C@@H](C(=O)O)C1)c1sccc1C [tiagabine] | 
